Test results taken from patent publication US20240352046A1, “ECTONUCLEOTIDE PYROPHOSPHATASE-PHOSPHODIESTERASE-1 (ENPP1) INHIBITORS AND USES THEREOF” (1cBio, Inc., priority 2020, published 2024).
Read-outs that look alike come from different tables or passages of the source.

Assays:
[1] = tested on: IFN-β release in differentiated THP-1 cells; test: IFN-β cytokine release assay in THP-1; assay type: cell-based; settings: Homo sapiens, read-out: EC50 (μM) @ 1 μM of cGAMP; IFN-β release over cGAMP induced release, THP-1, 1 μM cGAMP
Experimental: Percent release of Interferon Beta (IFN-03) was determined in acute monocytic leukemia (THP-1; ATCC® TIB-202™) cell line. THP-1 cells (0.3×10^6 cells/well) were differentiated using phorbol 12-myristate 13-acetate (PMA, 50 ng/mL; Cat #P8139, Sigma) and incubated for 24 h at 37° C., 5% CO2 in an incubator (cell culture conditions) prior to treating with serial dilutions of compounds (3 fold, 5 point dose response starting at […]). After treatment with the compounds cells were further incubated for 2 h under cell culture conditions and then exposed to 2′,3′-cGAMP (c-GAMP, 1 μM; Cat #SML 1229, Sigma). Differentiated THP-1 cells were further cultured for 6 h after which the supernatant was harvested, and ELISA was performed as per the manufacturer's protocol (Human IFN-beta Quantikine ELISA Kit; Cat #DIFNB0, R&D systems). Plates were read in Biotek plate reader by measuring absorbance at 450 nm.

[2] = tested on: IP-10 release in differentiated THP-1 cells; test: IP-10 cytokine release assay in THP-1 cell lines; assay type: cell-based, Human; settings: Homo sapiens
Experimental: Percent release of Interferon gamma-induced protein 10 (IP-10) was determined in acute monocytic leukemia (THP-1; ATCC® TIB-202™) cell line. THP-1 cells (0.2×10^6 cells/well) were differentiated using phorbol 12-myristate 13-acetate (PMA, 10 nM (final concentration); Cat #P8139, Sigma) and incubated for 24 h at 37° C., 5% CO2 in an incubator (cell culture conditions) prior to treating with serial dilutions of compounds (3 fold, 6 point dose response starting at 10 μM). After treatment with the compounds cells were further incubated for 2 h under cell culture conditions and then exposed to 2′,3′-cGAMP (c-GAMP, 1 μM (final concentration); Cat #SML 1229, Sigma). Differentiated THP-1 cells were further cultured for 24 h after which the supernatant was harvested, and ELISA was performed as per the manufacturer's protocol (BD optEIA Human IP-10 ELISA Set; Cat #550926 & 550534, BD Biosciences). Plates were read in Biotek plate reader by measuring absorbance at 450 nm.
The release of absolute IP-10 in differentiated THP-1 by compounds in the presence of cGAMP was quantified with reference to standard after subtracting blank (negative) reading from the test readings. The absolute release of IP-10 in the presence of cGAMP (1 μM) is given in the bar-graph (FIG.-1) and in the table-B2a.
The release of IP-10 in differentiated THP-1 by compounds over cGAMP induced release at four different concentrations of cGAMP (1, 5, 10 & 30 μM) was quantified with reference to standard by normalizing the blank (negative) subtracted test readings from average of cGAMP activated cells at that particular concentration. The EC50's was calculated by fitting the curve to the “four-parameter variable slope logistic model” using Prism Graph Pad.

[3] = tested on: IFN-β release in mouse splenocytes; test: IFN-β in mouse splenocyte assay; assay type: cell-based, Balb/c mice; settings: activated Balb/c splenocytes, cGAMP 1 μM, 24 hr
Experimental: Percent release of Interferon Beta (IFN-03) is determined in mouse splenocytes isolated from Balb/c mice. Mouse splenocytes ([…] cells/well) were activated with Anti-mouse CD3e (3 μg/mil, coated overnight at 4° C.; Cat #14-0032-82, eBioscience) and then incubated with Anti-mouse CD28 (3 μg/ml soluble; Cat #16-0289-81, eBiosciences) for 24 h at 37° C., 5% CO2 in an incubator (cell culture conditions) prior to treating them with serial dilutions of compounds (3 fold, 6 point dose response starting at 30 μM). After treatment with the compounds cells are further incubated for 2 h under cell culture conditions and then treated with 2′,3′-cGAMP (c-GAMP, 1 μM; Cat #SML 1229, Sigma). Splenocytes were further incubated under cell culture conditions for 24 hr after which the supernatant was harvested, and ELISA was performed as per the manufacturer's protocol (mIFN-β kit; Cat #MIFNB0 & DY008, R&D Systems). Plates were read in Biotek plate reader by measuring absorbance at 450 nm.

[4] = target: ENPP-1 (Ectonucleotide Pyrophosphatase/Phosphodiesterase 1) (Homo sapiens (Human), UniProt P22413); test: ENPP1 inhibition assay (AMP Glo, cGAMP substrate); assay type: biochemical
[5] = tested on: IP-10 release in mouse splenocytes; test: IP-10 in mouse splenocyte assay; assay type: cell-based, Balb/c mice; settings: activated Balb/c splenocytes, cGAMP 1 μM, 48 hr
Experimental: Percent release of Interferon gamma-induced protein 10 (IP-10) was determined in mouse splenocytes isolated from Balb/c mice. Mouse splenocytes (2.5*10^5 cells/well) were activated with Anti-mouse CD3e (3 μg/ml, coated overnight at 4° C.; Cat #14-0032-82, eBioscience) and then incubated with Anti-mouse CD28 (3 μg/ml soluble; Cat #16-0289-81, eBiosciences) for 24 h at 37° C., 5% CO2 in an incubator (cell culture conditions) prior to treating them with serial dilutions of compounds (3 fold, 6 point dose response starting at 30 μM). After treatment with the compounds cells were further incubated for 2 h under cell culture conditions and then treated with 2′,3′-cGAMP (c-GAMP, 1 μM; Cat #SML 1229, Sigma). Splenocytes were further incubated under cell culture conditions for 48 hr after which the supernatant was harvested, and ELISA was performed as per the manufacturer's protocol (mIP-10 kit; Cat #DY466-05 & DY008, R&D Systems). Plates were read in Biotek plate reader by measuring absorbance at 450 nm.

[6] = read-out: EC50 (μM)@ 1 μM of cGAMP, IP-10 release over cGAMP induced release, THP-1, 1 μM cGAMP
[7] = cGAMP 20 μM substrate, ENPP1 1 nM

Chain of ENPP-1 (Ectonucleotide Pyrophosphatase/Phosphodiesterase 1) (P22413 whole entry): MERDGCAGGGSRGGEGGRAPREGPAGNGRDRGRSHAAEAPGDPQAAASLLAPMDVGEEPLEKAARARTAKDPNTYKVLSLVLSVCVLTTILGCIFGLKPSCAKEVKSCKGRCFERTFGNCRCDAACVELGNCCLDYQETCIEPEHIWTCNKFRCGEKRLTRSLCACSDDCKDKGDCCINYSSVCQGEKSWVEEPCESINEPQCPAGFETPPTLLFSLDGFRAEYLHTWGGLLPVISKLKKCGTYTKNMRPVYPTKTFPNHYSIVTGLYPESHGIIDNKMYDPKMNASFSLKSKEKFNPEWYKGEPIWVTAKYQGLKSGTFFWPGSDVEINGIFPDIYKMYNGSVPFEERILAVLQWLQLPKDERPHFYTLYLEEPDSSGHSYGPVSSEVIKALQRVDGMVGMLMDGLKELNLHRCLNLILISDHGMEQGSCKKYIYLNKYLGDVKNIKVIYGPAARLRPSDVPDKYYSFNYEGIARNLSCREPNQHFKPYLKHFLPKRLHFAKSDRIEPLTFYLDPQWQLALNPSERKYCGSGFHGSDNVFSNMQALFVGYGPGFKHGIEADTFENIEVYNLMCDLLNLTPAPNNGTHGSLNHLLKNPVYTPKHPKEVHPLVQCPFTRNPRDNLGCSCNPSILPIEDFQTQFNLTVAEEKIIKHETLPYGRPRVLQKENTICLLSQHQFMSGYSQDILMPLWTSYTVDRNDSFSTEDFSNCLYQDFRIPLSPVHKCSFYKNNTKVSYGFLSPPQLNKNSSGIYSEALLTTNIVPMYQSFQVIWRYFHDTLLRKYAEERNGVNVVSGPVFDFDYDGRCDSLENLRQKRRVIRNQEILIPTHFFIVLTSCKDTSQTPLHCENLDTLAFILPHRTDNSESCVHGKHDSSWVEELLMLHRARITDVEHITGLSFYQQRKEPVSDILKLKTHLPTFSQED

EC50 [1] | EC50 [2, 6] | IC50 [3] | IC50 [4, 7] | IC50 [5] | SMILES | EC50 ([2]; THP-1, read-out: EC50 (μM)@ 1 μM of cGAMP) | IC50 [4]
< 0.12 µM | 0.071 µM | 3260 nM | 0.084 µM | 1780 nM | Cc1cc(Cl)n2ncnc(N3CC4(CC(N(C)S(N)(=O)=O)C4)C3)c12 [Compound 1.76, N-[2-(7-chloro-5-methylpyrrolo[2,1-f][1,2,4]triazin-4-yl)-2-azaspiro[3.3]hept-6-yl]-N-methylsulfuric diamide] |  | 
> 30 µM | 9.56 µM |  | 0.026 µM |  | COc1cc2ncnc(N3CC(CC(=O)NO)C3)c2cc1OC [Compound 1.28, 2-(1-(6,7-dimethoxyquinazolin-4-yl)azetidin-3-yl)-N-hydroxyacetamide] |  | 
> 30 µM | < 0.12 µM |  | 0.019 µM |  | COc1cc2ncnc(N3CC(CCB(O)O)C3)c2cc1OC [Compound 1.30, 2-(1-(6,7-dimethoxyquinazolin-4-yl)azetidin-3-yl)ethylboronic acid] |  | 
 | > 30 µM |  | 0.015 µM |  | COc1cc2ncnc(N3CC(CCC(=O)NO)C3)c2cc1OC [Compound 1.51, 3-(1-(6,7-dimethoxyquinazolin-4-yl)azetidin-3-yl)-N-hydroxypropanamide] |  | 
> 30 µM | 7.78 µM |  | 0.09 µM |  | COc1cc2ncnc(N3CC(CCNS(C)(=O)=O)C3)c2cc1OC [Compound 1.6, N-(2-[1-(6,7-dimethoxyquinazolin-4-yl)azetidin-3-yl]ethyl)methanesulfonamide] |  | 
 | < 0.1 µM |  | 0.043 µM |  | COc1cc2nncc(N3CC(CCNS(N)(=O)=O)C3)c2cc1OC [Compound 1.27, 4-(3-(2-sulfamoylaminoethyl)azetidine-1-yl)-6,7-dimethoxycinnoline] |  | 
 | > 18.6 µM |  | 0.043 µM |  | COc1cc2ncnc(N3CC(CCS(N)(=O)=O)C3)c2cc1OC [Compound 1.52, 2-(1-(6,7-dimethoxyquinazolin-4-yl)azetidin-3-yl)ethanesulfonamide] |  | 
 | 0.49 µM |  | 0.009 µM |  | COc1cc2ncnc(N3CC(C)(CCNS(N)(=O)=O)C3)c2cc1OC [Compound 1.22, 4-(3-Methyl-3-(2-sulfamoylaminoethyl)azetidine-1-yl)-6,7-dimethoxyquinazoline] |  | 
 |  |  |  |  | COc1cc2nc(C)nc(N3CC(CCNS(N)(=O)=O)C3)c2cc1OC [Compound 1.17, 4-(3-(2-sulfamoylaminoethyl)azetidine-1-yl)-6,7-dimethoxy-2-methylquinazoline] | 0.129 µM | 0.057 µM
 | < 0.12 µM |  | 0.084 µM |  | CCOc1cccc2c(N3CC(CCNS(N)(=O)=O)C3)ncnc12 [Compound 1.19, 4-(3-(2-sulfamoylaminoethyl)azetidine-1-yl)-8-ethoxyquinazoline] |  | 
 | > 30 µM |  | 0.099 µM |  | COc1cc2nc(-c3ccncc3)nc(N3CC(CCNS(N)(=O)=O)C3)c2cc1OC [Compound 1.35, 4-(3-(2-sulfamoylaminoethyl)azetidine-1-yl)-6,7-dimethoxy-2-(pyridin-4-yl)quinazoline] |  | 
 | 0.912 µM |  | 0.019 µM |  | COc1cc2ncnc(N3CC4(CC(N(C)S(N)(=O)=O)C4)C3)c2cc1OC [Compound 1.46, N-[2-(6,7-di-methoxyquinazoline-4-yl)-2-azaspiro[3.3]hept-6-yl]-N-methylsulfuric diamide] |  | 
> 30 µM | 5.73 µM |  | 0.07 µM |  | Cc1ccn2ncnc(N3CC(CCNS(N)(=O)=O)C3)c12 [Compound 1.20, 4-(3-(2-sulfamoylaminoethyl)azetidine-1-yl)-5-methylpyrrolo[1,2-f][1,2,4]triazine] |  | 
> 30 µM |  |  | > 3 µM |  | Cc1nc(N2CC(CCNS(N)(=O)=O)C2)c2c(C)ccn2n1 [Compound 1.71, 4-(3-(2-sulfamoylaminoethyl)azetidine-1-yl)-2,5-di-methylpyrrolo[1,2-f][1,2,4]triazine] |  | 
 | > 30 µM |  | 0.144 µM |  | COc1cc2ncnc(N3CC4(CC(N(C5CC5)S(N)(=O)=O)C4)C3)c2cc1OC [Compound 1.48, N-[2-(6,7-di-methoxyquinazoline-4-yl)-2-azaspiro[3.3]hept-6-yl]-N-cyclopropylsulfuric diamide] |  | 
> 30 µM | 3.26 µM |  |  |  | COc1cc2ncnc(N3CC(CCCS(N)(=O)=O)C3)c2cc1OC [Compound 1.39, 3-(1-(6,7-dimethoxyquinazolin-4-yl)azetidin-3-yl)propane-1-sulfonamide] |  | 
2.82 µM | 0.304 µM |  | 0.024 µM |  | COc1cc2ncnc(N3CC(C(C)CNS(N)(=O)=O)C3)c2cc1OC (centres unmarked) [Compound 1.70, 4-3-(3-sulfamoylaminopropan-2-yl)azetidin-1-yl-6,7-dimethoxyquinazoline] |  | 
> 30 µM | 1.88 µM |  | 0.092 µM |  | COc1cc2nc(-c3ccccc3)nc(N3CC(CCNS(N)(=O)=O)C3)c2cc1OC [Compound 1.21, 4-(3-(2-sulfamoylaminoethyl)azetidine-1-yl)-6,7-dimethoxy-2-phenylquinazoline] |  | 
> 30 µM | 7.87 µM |  | 0.029 µM |  | COc1cc2ncnc(N3CC(CCN(C4CC4)S(N)(=O)=O)C3)c2cc1OC [Compound 1.23, 4-(3-(2-((sulfamoyl)(cyclopropyl)amino)ethyl)azetidine-1-yl)-6,7-dimethoxyquinazoline] |  | 
 | > 30 µM |  | > 1.98 µM |  | COc1cc2ncnc(N3CC4(CC(NS(C)(=O)=O)C4)C3)c2cc1OC [Compound 1.49, N-(2-(6,7-dimethoxyquinazolin-4-yl)-2-azaspiro[3.3]heptan-6-yl)methanesulfonamide] |  | 
